This note sets out measurements from ChEMBL document CHEMBL3751669, “Structural refinement of pyrazolo[4,3-d]pyrimidine derivatives to obtain highly potent and selective antagonists for the human A3 adenosine receptor” (Eur J Med Chem, 2016).

Structures are written as SMILES.

Assay [1] deals with T1, Adenosine receptor A1 (Homo sapiens) (UniProt P30542).
T1 sequence (whole entry): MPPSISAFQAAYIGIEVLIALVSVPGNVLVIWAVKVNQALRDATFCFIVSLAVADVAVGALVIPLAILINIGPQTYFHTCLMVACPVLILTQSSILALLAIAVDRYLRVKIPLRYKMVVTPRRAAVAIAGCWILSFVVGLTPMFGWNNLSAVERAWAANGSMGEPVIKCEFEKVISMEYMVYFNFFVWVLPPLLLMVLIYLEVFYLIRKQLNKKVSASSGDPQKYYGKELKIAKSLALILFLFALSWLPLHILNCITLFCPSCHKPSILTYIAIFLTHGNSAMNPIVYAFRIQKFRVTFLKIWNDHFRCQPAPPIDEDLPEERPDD
As to the kind of experiment: Displacement of [3H]DPCPX at human A1 receptor expressed in CHO cell membrane at 1 uM after 120 mins by scintillation counting method. The assay is classed as cell membranes. (In general: Loss of bound radioactivity is the signal in a displacement assay; it reports binding, not function.)

Assay [2] concerns the target T2, Adenosine receptor A2b (Homo sapiens) (UniProt P29275).
T2 sequence (whole entry): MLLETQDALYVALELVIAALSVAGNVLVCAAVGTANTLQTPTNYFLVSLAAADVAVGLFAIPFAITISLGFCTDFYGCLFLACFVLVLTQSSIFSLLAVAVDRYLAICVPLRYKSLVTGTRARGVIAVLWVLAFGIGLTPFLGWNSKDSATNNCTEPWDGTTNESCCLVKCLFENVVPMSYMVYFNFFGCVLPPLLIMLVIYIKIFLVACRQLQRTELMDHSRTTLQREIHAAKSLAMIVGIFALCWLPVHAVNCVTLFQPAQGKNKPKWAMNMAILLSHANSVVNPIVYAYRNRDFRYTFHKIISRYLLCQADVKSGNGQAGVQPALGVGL
As to the kind of experiment: Antagonist activity at human A2B receptor expressed in CHO cells assessed as inhibition of NECA-stimulated cAMP production at 1 uM by scintillation counting method. It is filed as functional, cell-based. On the technique in general: Cyclic AMP is a second messenger, typically raised through Gs and lowered through Gi signalling.

In assay [3] the target is T3, Adenosine receptor A3 (Homo sapiens) (UniProt P0DMS8).
T3 sequence (whole entry): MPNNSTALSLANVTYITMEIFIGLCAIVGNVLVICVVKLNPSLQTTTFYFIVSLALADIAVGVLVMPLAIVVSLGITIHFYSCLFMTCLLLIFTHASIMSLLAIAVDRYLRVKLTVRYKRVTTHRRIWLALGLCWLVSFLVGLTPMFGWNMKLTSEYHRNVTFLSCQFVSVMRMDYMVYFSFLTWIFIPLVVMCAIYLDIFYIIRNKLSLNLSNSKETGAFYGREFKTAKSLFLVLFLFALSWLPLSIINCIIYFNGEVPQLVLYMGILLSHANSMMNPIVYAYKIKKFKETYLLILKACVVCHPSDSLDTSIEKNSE
As to the kind of experiment: Displacement of [125I]AB-MECA at human […] receptor expressed in CHO cell membrane at 1 uM after 60 mins by scintillation counting method. The assay is classed as cell membranes.

In assay [4] the target is Adenosine receptor A2a (Homo sapiens, UniProt P29274). Briefly: Displacement of [3H]ZM241385 at human A2A receptor expressed in CHO cell membrane at 1 uM after 60 mins by scintillation counting method. The assay is classed as cell membranes.
Assay [5] has as its target T4, Adenosine receptor A3 (Homo sapiens, UniProt P0DMS8).
T4 sequence (P0DMS8 whole entry): T3 sequence (whole entry)
As to the kind of experiment: Antagonist activity at human A3 receptor expressed in CHO cells assessed as inhibition of Cl-IB-MECA-induced cAMP production by scintillation counting method. The assay is classed as functional, cell-based.

In assay [6] the target is T4, Adenosine receptor A3. Briefly: Displacement of [125I]AB-MECA at human […] receptor expressed in CHO cell membrane after 60 mins by scintillation counting method. It is filed as cell membranes.
Assay [7] addresses T5, Adenosine receptor A1 (Homo sapiens, UniProt P30542).
T5 sequence (P30542 whole entry): T1 sequence (whole entry)
As to the kind of experiment: Displacement of [3H]DPCPX at human A1 receptor expressed in CHO cell membrane after 120 mins by scintillation counting method. It is filed as cell membranes.

Sequence of Adenosine receptor A2a (P29274 whole entry): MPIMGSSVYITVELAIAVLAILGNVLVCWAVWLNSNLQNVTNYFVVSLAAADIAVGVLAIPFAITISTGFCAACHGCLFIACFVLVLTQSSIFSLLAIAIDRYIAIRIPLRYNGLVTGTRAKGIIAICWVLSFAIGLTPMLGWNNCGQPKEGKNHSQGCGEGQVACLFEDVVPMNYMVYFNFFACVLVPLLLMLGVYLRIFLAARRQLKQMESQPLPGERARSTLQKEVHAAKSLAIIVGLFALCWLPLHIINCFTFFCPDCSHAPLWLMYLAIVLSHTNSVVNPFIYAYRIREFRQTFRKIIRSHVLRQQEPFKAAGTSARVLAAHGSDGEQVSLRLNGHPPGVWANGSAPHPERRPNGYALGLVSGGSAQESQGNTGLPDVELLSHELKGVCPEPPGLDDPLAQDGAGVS

For the molecule `O=c1[nH]c(-c2ccco2)nc2cn(-c3ccccc3)nc12`, the inhibition (in general, how much of the control response was suppressed) in assay [1] was 1%; in assay [2] it was 1%; in assay [3], 30%; in assay [4] it was 12%.
Regarding `Cn1cc2nc(-c3ccccc3)nc(N)c2n1`, the inhibition in assay [1] is 31%; in assay [2], 1%; in assay [3], 1%; in assay [4], 1%.
`Nc1nc(-c2ccc(Cl)cc2)nc2cn(-c3ccccc3)nc12`: the inhibition in assay [1] worked out at 13%; in assay [2] it was 3%; in assay [3], 4%; in assay [4], 1%.
In the case of `O=C(Nc1nc(-c2ccccc2)nc2cn(-c3ccccc3)nc12)c1cccs1`, the figures for the inhibition in assay [1], in assay [2] and in assay [4] were 18%, 1% and 1%, respectively. For the same molecule, the IC50 (usually the midpoint of a concentration-inhibition curve) in assay [5] was found to be 13 nM. For the same molecule, the Ki (usually the dissociation constant of the complex between target and ligand, obtained from inhibition or displacement) in assay [6] is 5.87 nM.
Consider `Nc1nc(-c2ccc(O)cc2)nc2cn(-c3ccccc3)nc12`, for which the inhibition in assay [1] worked out at 31%; in assay [2] it was 7%; in assay [4], 33%. Moreover, affinity in assay [6] was put at a Ki of 432 nM.
In the same order, the values of `COc1ccc(-c2nc(N)c3nn(-c4ccc(OC)cc4)cc3n2)cc1` are 1%, 1%, 3% and 17 nM.
On to `O=C(Nc1nc(-c2cccs2)nc2cn(-c3ccccc3)nc12)c1cccs1`, for which the IC50 in assay [5] was 5.59 nM. Besides, the Ki in assay [6] is 2.43 nM; in assay [7], 466 nM. The inhibition was 1% in assay [2] and 7% in assay [4].
As to `O=c1[nH]c(-c2ccccc2)nc2cn(-c3ccccc3)nc12`, in assay [2], the inhibition turned out to be 5%.
On to `Cc1nc(N)c2nn(-c3ccccc3)nc2n1`, for which the inhibition in assay [2] was 1%; in assay [3], 1%; in assay [4] it was 6%. In addition, the Ki in assay [7] was determined as 213 nM.
For `O=c1[nH]c(-c2cccs2)nc2cn(-c3ccccc3)nc12`, the values for the inhibition in assay [1], in assay [2] and in assay [4] were 6%, 1% and 14%, respectively. In assay [6], the Ki was 413 nM.
In the same order, the values of `Cc1nc2cn(Cc3ccccc3)nc2c(=O)[nH]1` are 6%, 1%, 1% and 485 nM.
On to `O=C(Cc1ccccc1)Nc1nc(-c2cccs2)nc2cn(-c3ccccc3)nc12`, for which the values for the inhibition in assay [1], in assay [2] and in assay [4] were 32%, 1% and 1%, respectively. Also, the IC50 in assay [5] came out at 8.45 nM. In addition, in assay [6], the inhibition constant (Ki) worked out at 3.53 nM.
For the molecule `COc1ccc(-n2cc3nc(-c4cccs4)nc(N)c3n2)cc1`, the inhibition in assay [1] was 28%; in assay [2], 31%; in assay [4], 35%. Also, in assay [6], the affinity corresponds to a Ki of 78 nM.
The matching figures for `COc1ccc(-c2nc(N)c3nn(-c4ccccc4)cc3n2)cc1`: 33%, 2%, 1% and 33 nM.
For the molecule `O=C(c1ccco1)N(C(=O)c1ccco1)c1nc(-c2cccs2)nc2cn(-c3ccccc3)nc12`, in assay [5], the IC50 was found to be 4.37 nM. Further, the Ki is 1.82 nM in assay [6] and 687 nM in assay [7]. Also, the inhibition in assay [2] turned out to be 1%; in assay [4], 2%.
`Cc1nc2cn(C)nc2c(=O)[nH]1`: the inhibition in assay [1], in assay [2], in assay [3] and in assay [4] was 1% in each case.
Take `O=c1[nH]c(-c2ccccc2)nc2cn(Cc3ccccc3)nc12`: the inhibition in assay [1] came out at 6%; in assay [2], 1%; in assay [4] it was 1%. Besides, the Ki in assay [6] stood at 130 nM.
In the case of `Cc1nc2nn(-c3ccccc3)nc2c(=O)[nH]1`, the inhibition was 32% in assay [1], 1% in assay [2] and 14% in assay [4]. In assay [6], this molecule came in with a Ki of 321 nM.
Take `O=C(Cc1ccccc1)Nc1nc(-c2ccccc2)nc2cn(Cc3ccccc3)nc12`: the inhibition stood at 7% in assay [1], 1% in assay [2] and 9% in assay [4]. In assay [6], the inhibition constant (Ki) turned out to be 202 nM.
`O=c1[nH]c(-c2ccccc2)nc2nn(-c3ccccc3)nc12`: the inhibition in assay [1] came out at 8%; in assay [2], 1%; in assay [3] it was 23%; in assay [4] it was 11%.
`Nc1nc(Cc2cccs2)nc2cn(-c3ccccc3)nc12`: the Ki came out at 250 nM in assay [6] and 400 nM in assay [7]. Further, the results for the inhibition in assay [2] and in assay [4] were 1% and 35%, respectively.
As to `O=C(Nc1nc(-c2cccs2)nc2cn(-c3ccccc3)nc12)c1ccco1`, in assay [5], the IC50 amounted to 5.47 nM. Also, the Ki stood at 2.34 nM in assay [6] and 552 nM in assay [7]. Also, the figures for the inhibition in assay [2] and in assay [4] were 1% and 21%, respectively.
Consider `O=C(Nc1nc(-c2ccccc2)nc2cn(Cc3ccccc3)nc12)c1ccccc1`, for which the figures for the inhibition in assay [1], in assay [2] and in assay [4] were 36%, 2% and 24%, respectively. The same molecule returned a Ki in assay [6] of 223 nM.
`O=C(Nc1nc(-c2cccs2)nc2cn(-c3ccccc3)nc12)c1cccnc1`: the IC50 in assay [5] was determined as 1.01 nM. The Ki in assay [6] was 0.41 nM; in assay [7], 764 nM. In addition, the inhibition in assay [2] stood at 1%; in assay [4] it was 3%.
For the molecule `Cc1ccc(-c2nc3cn(-c4ccccc4)nc3c(=O)[nH]2)o1`, the results for the inhibition in assay [1], in assay [2] and in assay [4] were 1%, 1% and 15%, respectively. The molecule further had a Ki in assay [6] of 868 nM.
Take `COc1ccc(-c2nc3cn(C)nc3c(=O)[nH]2)cc1`: the inhibition in assay [1] amounted to 2%; in assay [2] it was 1%; in assay [3], 1%; in assay [4], 1%.
In the case of `Cn1cc2nc(-c3ccccc3)[nH]c(=O)c2n1`, the inhibition in assay [1] was found to be 1%; in assay [2] it was 1%; in assay [3] it was 20%; in assay [4], 1%.
On to `Nc1nc(-c2ccccc2)nc2nn(-c3ccccc3)nc12`, for which the inhibition was found to be 38% in assay [1], 1% in assay [2], 1% in assay [3] and 3% in assay [4].
Turning to `Cc1nc2cn(-c3ccccc3)nc2c(=O)[nH]1`, in assay [2], the inhibition was 3%.
Regarding `COc1ccc(-n2cc3nc(-c4cccs4)[nH]c(=O)c3n2)cc1`, the values for the inhibition in assay [1], in assay [2] and in assay [4] were 5%, 1% and 1%, respectively. In assay [6], affinity was put at a Ki of 247 nM.
Regarding `Cc1nc2cn(-c3ccccc3F)nc2c(=O)[nH]1`, the inhibition in assay [1], in assay [2] and in assay [4] was 1% in each case. The affinity in assay [6], expressed as Ki, was 225 nM.
